The values below come from ChEMBL document CHEMBL3507680, “University of Dundee, Gates Library screen for HepG2 cell viability”.

This data set is described as follows: Human HepG2 cell viability assay in 384 well format. The format is toxicity, cell-based. The arrangement: dose 125 nL, time 70.5 hour; cytotoxicity at 70.5 h: concentration not given beside the values. The settings on record: HepG2 cells, read-out: Inhibition.
Take `C/C(Cl)=C/CNC(=O)[C@H]1CC[C@]2(CC1)CN(C)C(=O)c1ccccc1O2`: the cytotoxicity at 70.5 h is -6.71%.
For `COCCC(=O)NCCc1nc2cc(-c3ccc(OC)cc3)ncn2n1`, the cytotoxicity at 70.5 h was -6.53%.
In the case of `CCc1c(C)nn2c(O)cc(C3CCN(C(=O)c4ccccn4)C3)nc12` (stereo unspecified) it was -2.35%.
As to `CCc1c(C)nn2c(O)cc(C3CCN(C(=O)c4ccn(C)n4)C3)nc12` (stereo unspecified), the cytotoxicity at 70.5 h came out at 16.4%.
With `O=C(c1cc(C2CC2)on1)N1C[C@H]2CC[C@](O)(c3ccc(F)cc3)[C@H]2C1`, the cytotoxicity at 70.5 h was -0.34%.
In the case of `CN(C)Cc1cnn(-c2ccccc2C(=O)NCCC2CCCN2C)c1` (stereo unspecified) it was -0.0444%; in that of `Cc1cn[nH]c1C1COCCN1Cc1ccsc1` (stereo unspecified), -0.803%.
Take `Cc1nc(CN2CCOCC2c2[nH]ncc2C)cs1` (stereo unspecified): the cytotoxicity at 70.5 h worked out at 1.5%.
As for `CN(C)Cc1cccc(-c2cccnc2C(=O)NCC2CC2)c1`, the figure is -2.77%; as for `Cc1ccsc1C(=O)NCc1ccnc(C2CCCOC2)n1` (stereo unspecified), 13.6%.
As for `Cc1nccc(CN2Cc3nccn3CC2c2ccccc2)n1` (stereo unspecified), the figure is -4.01%; as for `CCc1c(C)nc2cc(C3CCN(Cc4ccncc4C)C3)nn2c1O` (stereo unspecified), -3.92%; as for `O=C(CCC1CCCO1)N1CCc2nc(-c3cnccn3)nc(O)c2C1` (stereo unspecified), -3.93%.
For the molecule `Oc1nc(-c2cnccn2)nc2c1CCN(Cc1ccccn1)C2`, the cytotoxicity at 70.5 h is -5.26%.
In the case of `O=C(Cc1ccc(F)cc1)N1CCCC(c2n[nH]c3nccnc23)C1` (stereo unspecified) it was 11.2%; in that of `Cn1nc(C2CCCN(Cc3ccc(F)cc3F)C2)c2nccnc21` (stereo unspecified), 0.45%.
In the case of `CC(C)Oc1cccc(CN2CCC(c3n[nH]c4ncccc34)CC2)c1` it was 30.6%; in that of `COc1ncccc1C(Cc1ccsc1)NC(=O)Cn1cccnc1=O` (stereo unspecified), 22.1%.
As for `Cc1c(C(=O)N2CCC(c3nc(C)n4ccsc34)CC2)cnn1C`, the figure is -4.61%; as for `Cc1cc(-c2cnn(CCNC(=O)c3snnc3C)c2C2CC2)on1`, -2.4%; as for `Cc1cc(-c2cnn(CCNC(=O)Cc3ccccn3)c2C2CC2)on1`, -3.25%.
Consider `Cc1cccc(CN2CCC(c3nnsc3S(C)(=O)=O)CC2)c1`, for which the cytotoxicity at 70.5 h is -5.38%.
As for `CS(=O)(=O)c1snnc1C1CCN(Cc2cccc(O)c2)CC1`, the figure is -7.7%.
As for `Cc1cc(C)c2cc(CNC(C)C)c3nn(C)c(=O)n3c2c1`, the figure is -1.75%; as for `Cc1cc(C)c2cc(CNCc3cccnc3)c3nn(C)c(=O)n3c2c1`, -0.562%; as for `CN(C)Cc1ccnc(C2CCCN2Cc2ccc(F)cn2)n1` (stereo unspecified), 17.2%.
For the molecule `Cc1ocnc1C(=O)N1CC[C@@H](O)[C@@H](O)[C@H](N2CCC(F)(F)CC2)C1`, the cytotoxicity at 70.5 h was -3.42%.
In the case of `COCc1ccc(C(=O)N2CC[C@H](O)[C@@H](n3ccnc3)CC2)cc1` it was -6.05%.
As for `NC(=O)C1(CCCc2ccccn2)CCCN(c2ncccn2)C1` (stereo unspecified), the figure is -2.53%; as for `COc1ccc(S(=O)(=O)N2CCC(O)(CN(C)C)C2)cc1` (stereo unspecified), -4.76%.
`CN1CCCC(c2cccc(CCC(=O)NCC3(C)COC3)n2)C1` (stereo unspecified): the cytotoxicity at 70.5 h was -1.36%.
As for `CC(C)N1CCC(Cc2cncc(-c3cccc(C(=O)O)c3)n2)CC1`, the figure is 10.8%; as for `Cc1cc(-c2cnn(CCNC(=O)c3cc[nH]n3)c2C2CC2)on1`, -0.801%; as for `Cn1cc(C(=O)N2CCCC(c3cnccn3)C2)cn1` (stereo unspecified), -4.7%.
In the case of `Cc1cc(-c2cc(F)ccc2C(=O)O)nc(C2CCCCN2C(C)C)n1` (stereo unspecified) it was -5.96%; in that of `CN(C)CC1(O)CCN(S(=O)(=O)c2ccc(Cl)cc2)C1` (stereo unspecified), 3.29%.
In the case of `CNc1cccc(C2CCCN(C(=O)c3cscn3)C2)n1` (stereo unspecified) it was -8.52%; in that of `Cc1nc(C(=O)N2CCCC(c3ccc4sc(N)nc4n3)C2)co1` (stereo unspecified), -7.73%; in that of `COc1ccc(-c2cc(C3CCN(C(C)=O)CC3)ccn2)cc1`, -7.99%.
Take `COc1cccc(CNC(=O)c2ccccc2-n2cnc(CN)c2)c1`: the cytotoxicity at 70.5 h was determined as 17%.
As for `CNC(=O)c1ccc(C2CN(C(=O)c3coc(C)n3)CCO2)nc1` (stereo unspecified), the figure is -11.4%; as for `Cc1csc(Nc2nccnc2C2CCCN2CC(N)=O)n1` (stereo unspecified), 11%.
In the case of `CN(C)S(=O)(=O)N1CCCC(c2cccc(Cc3ccccc3F)n2)C1` (stereo unspecified) it was 11.4%; in that of `CC(=O)N1CCCC1c1nccnc1Nc1ncccn1` (stereo unspecified), 15.9%.
For the molecule `Cc1csc(Nc2nccnc2C2CCCN2S(C)(=O)=O)n1` (stereo unspecified), the cytotoxicity at 70.5 h was -12.8%.
As for `Cc1ccc(C(=O)N2CCCCC2c2[nH]ncc2S(C)(=O)=O)cn1` (stereo unspecified), the figure is -2.26%; as for `COCCC(=O)N1CCCC1c1csc(Nc2ncccn2)n1` (stereo unspecified), -7.18%.
In the case of `Cn1ccc(C(=O)N2CCCC(Cc3cnc4ccccc4c3)C2)n1` (stereo unspecified) it was -1.48%; in that of `Cc1noc(C2CCCN2C(=O)C2CCC2)n1` (stereo unspecified), -11.5%; in that of `Cc1c[nH]nc1C1CCCCN1C(=O)CNS(C)(=O)=O` (stereo unspecified), 9.79%.
Take `CC(=O)N1CCC(c2n[nH]c3nccnc23)CC1`: the cytotoxicity at 70.5 h is -7.48%.
In the case of `CNc1cncc(C2CCCN2Cc2ccnc(C)n2)n1` (stereo unspecified) it was -0.507%.
In the case of `Cc1ccsc1C(=O)N1CCCC(c2[nH]ncc2S(C)(=O)=O)C1` (stereo unspecified) it was -6.4%; in that of `C[C@]1(O)CCN(Cc2c[nH]cn2)C[C@@H]1Oc1cccc(F)c1`, -7.83%.
In the case of `Cc1cncc(C2CCCN(C(=O)c3cnco3)C2)n1` (stereo unspecified) it was -3.92%; in that of `CC(C)c1nnc(CN2CCc3ccc(S(N)(=O)=O)cc32)o1`, -0.0777%.
For `Cc1nc(C(C)C)sc1C(C)N(C)C(=O)c1ccc(=O)n(C)c1` (stereo unspecified), the cytotoxicity at 70.5 h is 1.52%.
As for `Cc1c(NCCO)cccc1OC1CCCC1`, the figure is -2.5%; as for `N#CC1COCCN1C(=O)c1ccc2[nH]cnc2c1` (stereo unspecified), -1.24%.
As for `COc1cc(NC2CCCN(c3ncccn3)C2)cc(OC)c1` (stereo unspecified), the figure is 3.49%; as for `COc1c(CNCC(=O)N2CCN(C)CC2)c(C(C)C)nn1C`, -5.29%; as for `O=C(CCn1cncn1)NCCOc1cccc(Cl)c1`, -2.18%.
With `CC(C(=O)NCCc1ccc2c(c1)OCCO2)n1cncn1` (stereo unspecified), the cytotoxicity at 70.5 h was -14.6%.
As for `Cc1ccc(C(=O)NC2CCCN(S(C)(=O)=O)C2)c(=O)[nH]1` (stereo unspecified), the figure is -2.62%.
In the case of `Cc1ccc(C(=O)NC2CCCN(CC(N)=O)C2)c(=O)[nH]1` (stereo unspecified) it was -7.85%; in that of `Cc1nn(C)c(C)c1CC(=O)NCC1(C(N)=O)CCOCC1`, 22.8%; in that of `Cc1nc(C)n(CC2CCCN2c2ncnc3sccc23)n1` (stereo unspecified), -7.8%.
On to `CCc1ccsc1C(=O)NC(C#N)CC` (stereo unspecified), for which the cytotoxicity at 70.5 h is -5.37%.
As for `Cc1sc2ncnc(N3CCCC3Cn3cccn3)c2c1C` (stereo unspecified), the figure is -11.4%; as for `CCNC(=O)CN(CC)C(=O)c1csc(Cc2ccccc2F)n1`, -13.1%; as for `Cc1ncsc1COC(=O)c1cccc2c1OCCO2`, -5.64%.
In the case of `O=C(CCn1cccn1)NCCOc1ncc(Cl)cc1Cl` it was -10.6%.
With `Cc1cc(C)c(C#N)c(NCCn2cnnc2C(C)C)n1`, the cytotoxicity at 70.5 h came out at 0.173%.
In the case of `CS(=O)(=O)N1CCC(CNc2cc(Cl)ccc2C#N)CC1` it was -6.86%.
As for `N#CC1COCCN1C(=O)c1cccc2cc[nH]c12` (stereo unspecified), the figure is -13.5%; as for `CCN(C)Cc1cccc(CNC(=O)NCCc2ccccn2)c1`, -3.19%.
As for `Cc1oc(-c2ccco2)nc1CN1CCc2cncnc2C1`, the figure is -1.22%.
In the case of `CS(=O)(=O)NCc1cccc(COC2CCCCC2)c1`, the cytotoxicity at 70.5 h was -3.13%.
In the case of `COCc1ccccc1C(=O)OCc1noc(C)n1` it was -15.9%; in that of `OCCCNc1cccc(COC2CCCCC2)c1`, 21%.
As for `CC(NCc1ccnc(OC2CCC2)c1)c1cnn(C)c1` (stereo unspecified), the figure is -15.1%; as for `CCn1ccnc1CN1CCCC1c1c(C)nn(C)c1OC` (stereo unspecified), -4.2%; as for `N#Cc1ccc(CN2CCc3sccc3C2)c(F)c1`, -1.03%.
As for `COc1ccc(Cl)cc1CS(=O)(=O)Cc1nc(C)no1`, the figure is 15.2%; as for `O=C(CN1CCCS1(=O)=O)Nc1ccc(OC(F)F)cc1`, -9.68%; as for `COc1ccc(Cl)cc1CS(=O)(=O)Cc1cc(C)on1`, -5.88%.
`Cc1ccc(C(=O)NCCCn2cccn2)c(=O)[nH]1`: the cytotoxicity at 70.5 h was -0.293%.
In the case of `Cc1ccc(CNC(=O)Nc2nnc(C(C)C)s2)n1C` it was -4.19%; in that of `Cc1ccc(CNC(=O)Nc2nncs2)n1C`, -7.51%; in that of `Cc1ccc(-c2ccccc2CC2CNCCNC2=O)c(C)c1` (stereo unspecified), 31.4%.
As for `CCc1nc2ccccc2c(=O)n1CC1(O)CCN(C(=O)C2CC2)CC1`, the figure is -11.5%; as for `Cc1cc2c(=O)n3c(nc2s1)CCN(Cc1cnc(C)n1C)CC3`, -4.27%.
As for `Cc1cc2c(=O)n3c(nc2s1)CCN(Cc1[nH]cnc1C)CC3`, the figure is -9.2%; as for `Cc1cc2c(=O)n3c(nc2s1)CCN(Cc1cncn1C)CC3`, -7.45%.
Turning to `CCc1nc2ccccc2c(=O)n1CC1(O)CCNCC1`, the cytotoxicity at 70.5 h was -11.1%.
As for `Cc1nc(CC(=O)N2CCC(c3nn(C)c4ncccc34)CC2)cs1`, the figure is -9.42%; as for `Cc1ccc(CN2Cc3ccccc3O[C@]3(CC[C@H](CO)CC3)C2)s1`, 5.08%; as for `Cn1nc(C2CCCN(Cc3ccccc3)C2)c2nccnc21` (stereo unspecified), 2.89%.
As for `Clc1ccc(-c2ccc(C3CNCCO3)nc2)cc1` (stereo unspecified), the figure is -0.52%; as for `Cc1nccc(C2(C)CCCNC2)n1` (stereo unspecified), 16.5%.
For `CCc1cccc2c(CC(=O)N(C)CCN(C)C)c(C)[nH]c12`, the cytotoxicity at 70.5 h is -8.74%.
